{"source": "patent US12622910B2", "about": "“Inhibitors of Bruton's tyrosine kinase and methods of their use” (Janssen Pharmaceutica NV, priority 2021, dated 2026)", "key": {"[1]": {"experiment": "Protein binding in RPMI culture media containing 10% FBS", "format": "in vitro ADME", "conditions": "bovine, read-out: % free in RPMI culture media containing 10% FBS"}, "[2]": {"experiment": "Covalent binding to hepatic proteins in human hepatocytes (14C label)", "format": "in vitro ADME", "procedure": "The extent of the compound of Formula (III) covalent binding to hepatic proteins was determined in human hepatocytes at 1 and 10 μM (Table 19). A ^14C label was introduced at the acrylamide carbonyl carbon of the compound of Formula (III). […] Troglitazone and pioglitazone served as positive and negative controls, respectively."}, "MDCK-MDR1 (Pgp)": {"test_system": "MDCK-MDR1 (Pgp)", "experiment": "MDCK-MDR1 permeability and efflux", "method": "In vitro Absorption, Distribution, Metabolism, and Excretion—The compound of Formula (III) was assessed at a concentration of 5 μM in cell permeability models."}}, "data": [{"smiles": "C=CC(=O)N[C@H]1CCC[C@H]1NC(=O)c1sc2nccc3c2c1NC(=O)N3c1cnc(CC(C)C)cc1C", "note": "(atropisomer, axis not shown) [compound of Formula (III), N-((1R,2S)-2-Acrylamidocyclopentyl)-5-(S)-(6-isobutyl-4-methylpyridin-3-yl)-4-oxo-4,5-dihydro-3H-1-thia-3,5,8-triazaacenaphthylene-2-carboxamide]", "values": [{"measurement": "fraction unbound at 1 μM", "setting": "[1]", "result": 0.317}, {"measurement": "Compound Turnover", "setting": "[2]; 1 μM study", "result": 49.1, "unit": "%"}, {"measurement": "Fraction Covalently Bound (fcvb)", "setting": "[2]; 1 μM study", "result": "0.07 ± 0.01"}, {"measurement": "Net Covalent Binding", "setting": "[2]; 1 μM study, 0.5×10^6 cells/mL, 4.5 h", "result": "46.8 ± 5.1", "unit": "pmol eq/mg protein"}, {"measurement": "Compound Turnover", "setting": "[2]; 10 μM study", "result": 70.1, "unit": "%"}, {"measurement": "Fraction Covalently Bound (fcvb)", "setting": "[2]; 10 μM study", "result": "0.00564 ± 0.0001"}, {"measurement": "Net Covalent Binding", "setting": "[2]; 10 μM study, 0.75×10^6 cells/mL, 3 h", "result": "50.0 ± 0.8", "unit": "pmol eq/mg protein"}, {"measurement": "Efflux Ratio (BA/AB)", "setting": "MDCK-MDR1 (Pgp)", "result": ">115"}]}]}
